Measurements reported in patent publication US8309558B2, “Compounds for the treatment of hepatitis C” (Bristol-Myers Squibb Company, priority 2008, dated 2012).
Read-outs that look alike come from different tables or passages of the source.

Columns and labels:
[1] = target: T1, HCV NS5B RdRp genotype 1b (Hepatitis C virus genotype 1b, UniProt Q9WMX2); assay: Standard HCV NS5B RdRp enzyme assay; type: biochemical; conditions: HCV NS5B RdRp genotype 1b, read-out: IC50
T1 construct: The protein was expressed with an 18 amino acid C-terminal truncation to enhance the solubility; made in house; host or cells: E. coli BL21(DE3), pET21a vector
T1 sequence (Q9WMX2 2420-2992): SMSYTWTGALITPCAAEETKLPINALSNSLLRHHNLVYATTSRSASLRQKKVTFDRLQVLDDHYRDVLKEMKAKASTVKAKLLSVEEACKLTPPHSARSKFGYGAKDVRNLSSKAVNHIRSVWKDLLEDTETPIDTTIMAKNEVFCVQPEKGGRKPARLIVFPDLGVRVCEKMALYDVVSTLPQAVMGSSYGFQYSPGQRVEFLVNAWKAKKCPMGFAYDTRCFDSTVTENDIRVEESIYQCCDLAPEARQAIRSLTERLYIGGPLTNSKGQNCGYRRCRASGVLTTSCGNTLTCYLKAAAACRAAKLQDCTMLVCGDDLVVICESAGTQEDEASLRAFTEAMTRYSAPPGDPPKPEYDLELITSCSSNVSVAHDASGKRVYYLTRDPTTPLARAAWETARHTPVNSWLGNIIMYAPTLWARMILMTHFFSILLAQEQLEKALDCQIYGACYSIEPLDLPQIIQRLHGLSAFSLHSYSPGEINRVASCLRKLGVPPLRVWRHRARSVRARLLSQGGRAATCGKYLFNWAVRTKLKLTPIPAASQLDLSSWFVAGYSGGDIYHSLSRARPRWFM
Summary of the method: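 C-terminally truncated (18 aa) genotype 1b NS5B from E. coli, 28 nM, with 6 nM polyA template, 180 nM biotinylated oligo-dT12 primer and 3H-UTP (0.29 μM total UTP). Hepes pH 7.5 buffer with 2% DMSO; 60 min at 30° C. EDTA stop, SPA read-out; IC50 from seven concentrations by four-parameter fit.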

HCV replicon cells = assay: HCV replicon FRET / luciferase assay (96-well plates); type: cell-based; conditions: Hepatitis C virus, HCV replicon, read-out: EC50
Summary of the method: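 Replicon cells (with or without Renilla luciferase reporter) incubated with titrated compounds at 37 °C; Alamar blue read for cytotoxicity first. NS3 protease activity read kinetically with 20 μM EDANS/DABCYL FRET peptide in lysis reagent plus 150 mM NaCl (ex 340/em 490), or by Dual-Glo luciferase. EC50 = 50% signal reduction after protease-inhibitor background subtraction.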

[2] = untitled table after Table 1b, values without asterisk
[3] = second table titled Table 1d (numbers)
[4] = 24 h, second table titled Table 1d (numbers)

SMILES: CCCC[C@H](CO)NC(=O)c1cccc(-c2ccc3oc(-c4ccc(F)cc4)c(C(=O)NC)c3c2)c1 [drawing 232]
- IC50 ([1]; Table 1a): 250 to 1000 nM
- EC50 (HCV replicon cells; Table 1a): 1000 to 10000 nM

SMILES: CNC(=O)c1c(-c2ccc(F)cc2)oc2ccc(-c3cccc(C(=O)N[C@@H](CO)C(C)C)c3)cc12 [drawing 235]
- IC50 ([1]; Table 1a): 250 to 1000 nM
- EC50 (HCV replicon cells; Table 1a): 1000 to 10000 nM

SMILES: CNC(=O)c1c(-c2ccc(F)cc2)oc2ccc(-c3cccc(C(=O)N[C@H]4CCC[C@H]4c4ccc(Cl)cc4)c3)cc12 [drawing 243]
- IC50 ([1]; Table 1a): > 10000 nM
- EC50 (HCV replicon cells; Table 1a): 1000 to 10000 nM

SMILES: CNC(=O)c1c(-c2ccc(F)cc2)oc2ccc(-c3cccc(C(=O)N4CC[C@H](NC(C)=O)C4)c3)cc12 [drawing 277]
- IC50 ([1]; Table 1a): 1000 to 10000 nM
- EC50 (HCV replicon cells; Table 1a): > 10000 nM

SMILES: CNC(=O)c1c(-c2ccc(F)cc2)oc2ccc(-c3ccc(C(=O)N(C)Cc4cccnc4)cc3)cc12 [drawing 286]
- IC50 ([1]; Table 1a): 1000 to 10000 nM
- EC50 (HCV replicon cells; Table 1a): > 10000 nM

SMILES: CNC(=O)c1c(-c2ccc(F)cc2)oc2ccc(-c3ccc(C(=O)N4CCC[C@@H]4COC)cc3)cc12 [drawing 288]
- IC50 ([1]; Table 1a): > 10000 nM
- EC50 (HCV replicon cells; Table 1a): > 10000 nM

SMILES: CN1CN(C)c2c(-c3cccc(C(N)=O)c3)ccc3oc(-c4ccc(F)cc4)c(c23)C1=O [drawing 319]
- IC50 ([1]; Table 1a): > 10000 nM
- EC50 (HCV replicon cells; Table 1a): > 10000 nM

SMILES: CNC(=O)c1c(-c2ccc(F)cc2)oc2ccc(-c3cc(C(=O)NC(C)(C)c4ccccc4)ccc3OC)cc12 [drawing 355]
- IC50 ([1]; Table 1b): < 250 nM
- EC50 (HCV replicon cells; Table 1b): < 250 nM

SMILES: CNC(=O)c1c(-c2ccc(F)cc2)oc2ccc(-c3cc(C(=O)NC4(c5ccccc5)CC4)ccc3OC)cc12 [drawing 356]
- IC50 ([1]; Table 1b): < 250 nM
- EC50 (HCV replicon cells; Table 1b): < 250 nM

SMILES: CNC(=O)c1c(-c2ccc(F)cc2)oc2ccc(-c3cc(C(=O)NC4(c5ccccc5)CC4)ccc3C)cc12 [drawing 362]
- IC50 ([1]; Table 1b): < 250 nM
- EC50 (HCV replicon cells; Table 1b): < 250 nM

SMILES: CNC(=O)c1c(-c2ccc(F)cc2)oc2ccc(-c3cc(C(=O)NC4(c5ccccn5)CC4)ccc3Cl)cc12 [drawing 384]
- IC50 ([1]; Table 1b): < 250 nM
- EC50 (HCV replicon cells; Table 1b): < 250 nM

SMILES: CNC(=O)c1c(-c2ccc(F)cc2)oc2ccc(-c3cc(C(=O)NCC(C)C)ccc3OCCC3CNCCO3)cc12 (stereo not drawn) [drawing 415]
- IC50 ([1]; Table 1b): < 250 nM
- EC50 (HCV replicon cells; Table 1b): < 250 nM

SMILES: CNC(=O)c1c(-c2ccc(F)cc2)oc2ccc(-c3cc(C(=O)NC4(c5ccccn5)CC4)ccc3C)cc12 [drawing 425]
- IC50 ([1]; Table 1b): < 250 nM
- EC50 (HCV replicon cells; Table 1b): < 250 nM

SMILES: CNC(=O)c1c(-c2ccc(F)cc2)oc2ccc(-c3cc(C(=O)NC4(c5nc(C)no5)CC4)c(OC)cc3C)cc12 [drawing 500]
- IC50 ([1]; Table 1b): < 250 nM
- EC50 (HCV replicon cells; Table 1b): < 250 nM

SMILES: CNC(=O)c1c(-c2ccc(F)cc2)oc2ccc(-c3cc(C(=O)NC4(c5ccncc5)CC4)ccc3C)cc12 [drawing 501]
- IC50 ([1]; Table 1b): < 250 nM
- EC50 (HCV replicon cells; Table 1b): < 250 nM

SMILES: CNC(=O)c1c(-c2ccc(F)cc2)oc2ccc(-c3cc(C(=O)NC4(c5ccccn5)CC4)cc(F)c3C)cc12 [drawing 558]
- IC50 ([1]; Table 1b): < 250 nM
- EC50 (HCV replicon cells; Table 1b): < 250 nM

SMILES: CNC(=O)c1c(-c2ccc(F)cc2)oc2ccc(-c3cc(C(=O)NC4(c5ncccn5)CC4)ccc3C)cc12 [drawing 570]
- IC50 ([1]; Table 1b): < 250 nM
- EC50 (HCV replicon cells; Table 1b): < 250 nM

SMILES: CNC(=O)c1c(-c2ccc(F)cc2)oc2ccc(-c3cc(C(=O)NC4(c5ncccn5)CC4)ccc3C)c(F)c12 [drawing 587]
- IC50 ([1]; Table 1b): < 250 nM
- EC50 (HCV replicon cells; Table 1b): < 250 nM

SMILES: CNC(=O)c1c(-c2ccc(F)cc2)oc2ccc(-c3cc(C(=O)NC4(c5ccccc5)CC4)ccc3OC)cc12 [drawing 604]
- IC50 ([1]; untitled table after Table 1b): 9.95 nM
- EC50 (HCV replicon cells; [2]): 1.78 nM

SMILES: CNC(=O)c1c(-c2ccc(F)cc2)oc2ccc(-c3cc(C(=O)NC4(c5ccccn5)CC4)ccc3Cl)cc12 [drawing 605]
- IC50 ([1]; untitled table after Table 1b): 10 nM
- EC50 (HCV replicon cells; [2]): 1.83 nM

SMILES: CNC(=O)c1c(-c2ccc(F)cc2)oc2ccc(-c3cc(C(=O)NC4(c5ccccn5)CC4)ccc3C)cc12 [drawing 606]
- IC50 ([1]; untitled table after Table 1b): 8.6 nM
- EC50 (HCV replicon cells; [2]): 1.95 nM

SMILES: CNC(=O)c1c(-c2ccc(F)cc2)oc2cc(N)c(-c3cccc(C(=O)NC(C)(C)c4ccccc4)c3)cc12 [drawing 607]
- IC50 ([1]; untitled table after Table 1b): 5.45 nM
- EC50 (HCV replicon cells; [2]): 2.47 nM

SMILES: CNC(=O)c1c(-c2ccc(F)cc2)oc2ccc(-c3cc(C(=O)NC(C)(C)c4ccccc4)ccc3OC)cc12 [drawing 608]
- IC50 ([1]; untitled table after Table 1b): 9.65 nM
- EC50 (HCV replicon cells; [2]): 3.04 nM

SMILES: CNC(=O)c1c(-c2ccc(F)cc2)oc2ccc(-c3cc(C(=O)NC4(c5ccccc5)CC4)ccc3F)cc12 [drawing 609]
- IC50 ([1]; untitled table after Table 1b): 20 nM
- EC50 (HCV replicon cells; [2]): 3.57 nM

SMILES: CNC(=O)c1c(-c2ccc(F)cc2)oc2ccc(-c3cccc(C(=O)NC4(c5ccccc5)CC4)c3)cc12 [drawing 610]
- IC50 ([1]; untitled table after Table 1b): 5.9 nM
- EC50 (HCV replicon cells; [2]): 3.58 nM

SMILES: CNC(=O)c1c(-c2ccc(F)cc2)oc2ccc(-c3cccc(C(=O)N4CCCCC4C)c3)cc12 (stereo not drawn) [drawing 611]
- IC50 ([1]; untitled table after Table 1b): 290 nM
- EC50 (HCV replicon cells; [2]): 1130 nM

SMILES: CNC(=O)c1c(-c2ccc(F)cc2)oc2ccc(-c3cccc(C(=O)N[C@H]4CCC[C@H]4c4ccc(Cl)cc4)c3)cc12 [drawing 612]
- IC50 ([1]; untitled table after Table 1b): > 12500 nM
- EC50 (HCV replicon cells; [2]): 1130 nM

SMILES: CNC(=O)c1c(-c2ccc(F)cc2)oc2ccc(-c3cccc(C(=O)N[C@@H](CO)C(C)C)c3)cc12 [drawing 613]
- IC50 ([1]; untitled table after Table 1b): 800 nM
- EC50 (HCV replicon cells; [2]): 1250 nM

SMILES: CCCC[C@H](CO)NC(=O)c1cccc(-c2ccc3oc(-c4ccc(F)cc4)c(C(=O)NC)c3c2)c1 [drawing 614]
- IC50 ([1]; untitled table after Table 1b): 600 nM
- EC50 (HCV replicon cells; [2]): 1260 nM

SMILES: CNC(=O)c1c(-c2ccc(F)cc2)oc2ccc(-c3cccc(C(=O)NCCOC)c3)cc12 [drawing 615]
- IC50 ([1]; untitled table after Table 1b): 1710 nM
- EC50 (HCV replicon cells; [2]): 1340 nM

SMILES: CNC(=O)c1c(-c2ccc(F)cc2)oc2ccc(-c3cccc(C(=O)N(C)CCC#N)c3)cc12 [drawing 616]
- IC50 ([1]; untitled table after Table 1b): 800 nM
- EC50 (HCV replicon cells; [2]): 1380 nM

SMILES: CCC[C@H](CO)NC(=O)c1cccc(-c2ccc3oc(-c4ccc(F)cc4)c(C(=O)NC)c3c2)c1 [drawing 617]
- IC50 ([1]; untitled table after Table 1b): 1150 nM
- EC50 (HCV replicon cells; [2]): 1390 nM

SMILES: CN1CN(C)c2c(-c3cccc(C(N)=O)c3)ccc3oc(-c4ccc(F)cc4)c(c23)C1=O [drawing 619]
- IC50 ([1]; untitled table after Table 1b): > 12500 nM
- EC50 (HCV replicon cells; [2]): 13700 nM

SMILES: CNC(=O)c1c(-c2ccc(F)cc2)oc2ccc(-c3ccc(C(=O)N(C)Cc4cccnc4)cc3)cc12 [drawing 620]
- IC50 ([1]; untitled table after Table 1b): 9920 nM
- EC50 (HCV replicon cells; [2]): 15100 nM

SMILES: CNC(=O)c1c(-c2ccc(F)cc2)oc2ccc(-c3ccc(C(=O)N4CCC[C@@H]4COC)cc3)cc12 [drawing 621]
- IC50 ([1]; untitled table after Table 1b): 10400 nM
- EC50 (HCV replicon cells; [2]): 15400 nM

SMILES: CNC(=O)c1c(-c2ccc(F)cc2)oc2ccc(-c3cccc(C(=O)N4CC[C@H](NC(C)=O)C4)c3)cc12 [drawing 622]
- IC50 ([1]; untitled table after Table 1b): 7130 nM
- EC50 (HCV replicon cells; [2]): 16100 nM

SMILES: CNC(=O)c1c(-c2ccc(F)cc2)oc2ccc(-c3cc(C(=O)NC4(c5ncc(C)s5)CC4)ccc3C)cc12 [drawing 625]
- IC50 ([1]; Table 1d (class symbols)): < 20 nM
- EC50 (HCV replicon cells; 24 h, Table 1d (class symbols)): 1 to 250 nM

SMILES: CNC(=O)c1c(-c2ccc(F)cc2)oc2ccc(-c3cc(C(=O)NC4(c5ccccn5)CC4)c(OCc4cnccn4)cc3C)cc12 [drawing 660]
- IC50 ([1]; Table 1d (class symbols)): 1 to 250 nM
- EC50 (HCV replicon cells; 24 h, Table 1d (class symbols)): 1 to 250 nM

SMILES: CNC(=O)c1c(-c2ccc(F)cc2)oc2ccc(-c3cc(C(=O)NC4(c5ncccn5)CC4)cc(F)c3C)c(F)c12 [drawing 668]
- IC50 ([1]; Table 1d (class symbols)): 1 to 250 nM
- EC50 (HCV replicon cells; 24 h, Table 1d (class symbols)): 1 to 250 nM

SMILES: CNC(=O)c1c(-c2ccc(F)cc2)oc2ccc(-c3cc(C(=O)NC4(c5ncc(C)s5)CC4)ccc3C)cc12 [drawing 708]
- IC50 [1, 3]: < 17 nM
- EC50 (HCV replicon cells; [4]): 1.9 nM

SMILES: CNC(=O)c1c(-c2ccc(F)cc2)oc2ccc(-c3cc(C(=O)NC4(c5ccccn5)CC4)c(OCc4cnccn4)cc3C)cc12 [drawing 711]
- IC50 [1, 3]: 2.1 nM
- EC50 (HCV replicon cells; [4]): 1 nM

SMILES: CNC(=O)c1c(-c2ccc(F)cc2)oc2ccc(-c3cc(C(=O)NC4(c5ncccn5)CC4)cc(F)c3C)c(F)c12 [drawing 712]
- IC50 [1, 3]: 8.1 nM
- EC50 (HCV replicon cells; [4]): 2.4 nM
